Patent US20210188843A1, “QUINOLINE COMPOUNDS AND THEIR PREPARATION AND USE AS ANTIMALARIAL AGENTS” (The United States of America,as represented by the …, priority 2018, published 2021)
Values after ≈ are worked out from the molar mass of the structure shown.

Legend:
Solubility pH 7.4 = type: physicochemical; settings: aqueous buffer, Table 1
[1] = Microsomal stability (rat); type: in vitro ADME; settings: rat microsomes, Table 1, read-out: Microsomal Stability (rat) T1/2
PAMPA permeability = type: in vitro ADME; settings: Table 1
[2] = system: Asexual parasites of P. falciparum strain 3D7; test: In vitro drug activity on asexual parasites (SYBR Green assay); type: cell-based; settings: Plasmodium falciparum; Table 1; P. falciparum 3D7 asexual stage, 72 h; read-out: Asexual EC50
Method in brief: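 Growth was measured by SYBR Green I fluorescence (excitation 490 nm, emission 520 nm) after freeze-thaw lysis and 30 min staining at room temperature. Parasites (0.5% parasitemia, 2% hematocrit) had been incubated 72 h with compound, DMSO below 0.5%. Conditions were run in duplicate with no-drug and RBC-alone controls.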

| SMILES | solubility (Solubility pH 7.4) [µg/mL] | half-life [1] [min] | Papp (PAMPA permeability) [×10⁻⁶ cm/s] | EC50 [2] [nM] |
| --- | --- | --- | --- | --- |
| CC(=O)N1CCN([C@H]2C[C@H](n3c(=N)n(C)c4cnc5ccc(-c6ccc(Cl)cc6)cc5c43)C2)CC1 [Compound 129, 1-(4-((1r,3r)-3-(8-(4-chlorophenyl)-2-imino-3-methyl-2,3-dihydro-1H-imidazo[4,5-c]quinolin-1-yl)cyclobutyl)piperazin-1-yl)ethan-1-one] | > 48 | > 30 | 4.6 | 12700 |
| CC(=O)N1CCN(c2nc(C)c(-n3c(=N)n(C)c4cnc5ccc(-c6ccc(Cl)cc6)cc5c43)cc2C#N)CC1 [Compound 130, 2-(4-acetylpiperazin-1-yl)-5-(8-(4-chlorophenyl)-2-imino-3-methyl-2,3-dihydro-1H-imidazo[4,5-c]quinolin-1-yl)-6-methylnicotinonitrile] | > 54 | 20.2 | 112 | 22.2 |
| Cc1cc(C#N)c(C#N)cc1-n1c(=N)n(C)c2cnc3ccc(-c4ccc(Cl)cc4)cc3c21 [Compound 135, 4-(8-(4-chlorophenyl)-2-imino-3-methyl-2,3-dihydro-1H-imidazo[4,5-c]quinolin-1-yl)-5-methylphthalonitrile] | < 1 | > 30 | 397 | 27 |
| Cc1ccc(C#N)cc1-n1c(=N)n(C)c2cnc3ccc(-c4cnn(C)c4)cc3c21 [Compound 136, 3-(2-imino-3-methyl-8-(1-methyl-1H-pyrazol-4-yl)-2,3-dihydro-1H-imidazo[4,5-c]quinolin-1-yl)-4-methylbenzonitrile] | 40.4 (≈ 103 µM) | > 30 | 89.5 | 56.1 |
| Cc1ccc(C#N)cc1-n1c(=N)n(C)c2cnc3ccc(-c4ccc(Cl)cc4)cc3c21 [Compound 137, 3-(8-(4-chlorophenyl)-2-imino-3-methyl-2,3-dihydro-1H-imidazo[4,5-c]quinolin-1-yl)-4-methylbenzonitrile] | 3.6 (≈ 8.49 µM) | > 30 | 1260 | 43.1 |
| Cc1nc(N2CCN(C)CC2)c(C#N)cc1-n1c(=N)n(C)c2cnc3ccc(-c4cccc(F)c4)cc3c21 [Compound 143, 5-(8-(3-fluorophenyl)-2-imino-3-methyl-2,3-dihydro-1H-imidazo[4,5-c]quinolin-1-yl)-6-methyl-2-(4-methylpiperazin-1-yl)nicotinonitrile] | > 50 | > 30 | 776 | 374 |

Further compounds by falling EC50 [2], results first:

| solubility (Solubility pH 7.4) [µg/mL] | half-life [1] [min] | Papp (PAMPA permeability) [×10⁻⁶ cm/s] | EC50 [2] [nM] | SMILES |
| --- | --- | --- | --- | --- |
| < 1 | > 30 | 916 | 8980 | Cc1ccc(C#N)cc1-n1c(=N)n(C)c2cnc3ccc(C#Cc4ccc(Cl)cc4)cc3c21 [Compound 155, 3-(8-((4-chlorophenyl)ethynyl)-2-imino-3-methyl-2,3-dihydro-1H-imidazo[4,5-c]quinolin-1-yl)-4-methylbenzonitrile] |
| 1.3 (≈ 2.5 µM) | > 30 | 6.2 | 148 | Cc1cc(N2CC3(COC3)C2)c(C#N)cc1-n1c(=N)n(C)c2cnc3ccc(-c4ccc(Cl)cc4)cc3c21 [Compound 121, 5-(8-(4-chlorophenyl)-2-imino-3-methyl-2,3-dihydro-1H-imidazo[4,5-c]quinolin-1-yl)-4-methyl-2-(2-oxa-6-azaspiro[3.3]heptan-6-yl)benzonitrile] |
| 16.7 (≈ 34.2 µM) | > 30 | 1140 | 142 | Cc1ccc(-c2ccc3ncc4c(c3c2)n(-c2cc(C#N)c(N3CCOCC3)cc2C)c(=N)n4C)cc1 [Compound 145, 5-(2-imino-3-methyl-8-(p-tolyl)-2,3-dihydro-1H-imidazo[4,5-c]quinolin-1-yl)-4-methyl-2-morpholinobenzonitrile] |
| 4.6 (≈ 8.15 µM) | > 30 | 7 | 54.9 | CC(=O)NC1CCN(c2cc(C)c(-n3c(=N)n(C)c4cnc5ccc(-c6ccc(Cl)cc6)cc5c43)cc2C#N)CC1 [Compound 132, N-(1-(4-(8-(4-chlorophenyl)-2-imino-3-methyl-2,3-dihydro-1H-imidazo[4,5-c]quinolin-1-yl)-2-cyano-5-methylphenyl)piperidin-4-yl)acetamide] |
| 4.3 (≈ 7.68 µM) | 24.4 | 656 | 28.4 | COC(=O)/N=c1\n(C)c2cnc3ccc(-c4ccc(C)cc4)cc3c2n1-c1cc(C#N)c(N2CCN(C)CC2)cc1C [Compound 147, Methyl (E)-(1-(5-cyano-2-methyl-4-(4-methylpiperazin-1-yl)phenyl)-3-methyl-8-(p-tolyl)-1,3-dihydro-2H-imidazo[4,5-c]quinolin-2-ylidene)carbamate] |
| 12.5 (≈ 27 µM) | > 30 | 243 | 1.2 | COC(=O)/N=c1\n(C)c2cnc3ccc(-c4ccc(C)nc4)cc3c2n1-c1cc(C#N)ccc1C [Compound 125, methyl (E)-(1-(5-cyano-2-methylphenyl)-3-methyl-8-(6-methylpyridin-3-yl)-1,3-dihydro-2H-imidazo[4,5-c]quinolin-2-ylidene)carbamate] |
